For the assay, the target named is CCR2 (Homo sapiens (Human), UniProt P41597). Kind of assay: MCP-1 Receptor Binding Assay in THP-1 Cells.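 Note: THP-1 is a human monocytic cell line, and nonspecific binding was defined with 1 µM unlabeled MCP-1.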 To be noted: 0.5 nM 125I labeled MCP-1, 2 hours at 30° C., read-out: Inhibition of MCP-1 Binding IC50 MCP1B.
Chain of CCR2 (P41597 whole entry): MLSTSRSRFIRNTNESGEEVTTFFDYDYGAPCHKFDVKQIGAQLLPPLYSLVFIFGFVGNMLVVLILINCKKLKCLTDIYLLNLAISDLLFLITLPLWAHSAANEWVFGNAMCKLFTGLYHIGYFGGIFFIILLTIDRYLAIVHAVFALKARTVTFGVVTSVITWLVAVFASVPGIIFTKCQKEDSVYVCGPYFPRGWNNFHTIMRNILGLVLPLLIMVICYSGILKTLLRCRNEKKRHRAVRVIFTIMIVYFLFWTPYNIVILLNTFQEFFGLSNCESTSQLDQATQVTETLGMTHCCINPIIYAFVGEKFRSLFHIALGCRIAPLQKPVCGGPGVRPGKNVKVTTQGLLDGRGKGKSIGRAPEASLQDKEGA

By IC50 is commonly meant the point on the concentration scale where inhibition reaches its midpoint. For the molecule `CCC(OC(C)=O)[C@H]1CC[C@@H](N2CC(NC(=O)CNc3ncnc4ccc(C(F)(F)F)cc34)C2)CC1` (stereo partly drawn) [Example 100, 1-((1s,4S)-4-(3-(2-((6-(trifluoromethyl)quinazolin-4-yl)amino)acetamido)azetidin-1-yl)cyclohexyl)propyl acetate], the IC50 was found to be 28 nM.

Consider `CC(C)C(O)[C@H]1CC[C@@H](N2CC(NC(=O)CNc3cnnc4ccc(C(F)(F)F)cc34)C2)CC1` (stereo partly drawn) [Example 157, N-(1-((1R,4s)-4-((S)-1-hydroxy-2-methylpropyl)cyclohexyl)azetidin-3-yl)-2-((6-(trifluoromethyl)cinnolin-4-yl)amino)acetamide], for which the IC50 was found to be 530 nM.

For `CC(C)(C)OC(=O)NC[C@H]1CC[C@@H](N2CC(NC(=O)CNc3ncnc4ccc(C(F)(F)F)cc34)C2)CC1` [Example 113, tert-butyl (((1s,4s)-4-(3-(2-((6-(trifluoromethyl)quinazolin-4-yl)amino)acetamido)azetidin-1-yl)cyclohexyl)methyl)carbamate], the IC50 is 120 nM.

For the molecule `CCCC(O)[C@H]1CC[C@@H](N2CC(NC(=O)CNc3ncnc4ccc(C(F)(F)F)cc34)C2)CC1` (stereo partly drawn) [Example 90, N-(1-((1S,4s)-4-(1-hydroxybutyl)cyclohexyl)azetidin-3-yl)-2-((6-(trifluoromethyl)quinazolin-4-yl)amino)acetamide], the IC50 is 13 nM.

Take `O=C(CNc1ncnc2ccc(C(F)(F)F)cc12)NC1CN([C@H]2CC[C@@H](C3CCCCO3)CC2)C1` (stereo partly drawn) [Example 14, N-(1-((1S,4s)-4-(tetrahydro-2H-pyran-2-yl)cyclohexyl)azetidin-3-yl)-2-((6-(trifluoromethyl)quinazolin-4-yl)amino)acetamide]: the IC50 came out at 15 nM.

On to `CC(C)[C@H](O)C1CCC(N2CC(NC(=O)CNc3ncnc4ccc(C(F)(F)F)cc34)C2)CC1` (single isomer, unassigned; (+)) [(+) 8], for which the IC50 worked out at 44 nM.

With `CC(C)[C@]1(O)CC[C@H](N2CC(NC(=O)CNc3ncnc4ccc(C(F)(F)F)cc34)C2)CC1` [Example 37, N-(1-((1r,4r)-4-hydroxy-4-isopropylcyclohexyl)azetidin-3-yl)-2-((6-(trifluoromethyl)quinazolin-4-yl)amino)acetamide], the IC50 was found to be 235 nM.

As to `CCC([C@H]1CC[C@@H](N2CC(NC(=O)CNc3ncnc4ccc(C(F)(F)F)cc34)C2)CC1)N(C)C` (stereo partly drawn) [Example 137, N-(1-((1S,4s)-4-((R)-1-(dimethylamino)propyl)cyclohexyl)azetidin-3-yl)-2-(6-(trifluoromethyl)quinazolin-4-ylamino)acetamide], the IC50 came out at 5040 nM.

For `CC[C@H](O)C1CCC(N2CC(NC(=O)CNc3nccc4ccc(C(F)(F)F)cc34)C2)CC1` (some centres unmarked) [Example 168], the IC50 is more than 25000 nM.

For the molecule `O=C(CNc1ncnc2ccc(C(F)(F)F)cc12)NC1CN([C@H]2CC[C@@H](N3CCCCO3)CC2)C1` [Example 52, N-(1-((1s,4s)-4-(1,2-oxazinan-2-yl)cyclohexyl)azetidin-3-yl)-2-((6-(trifluoromethyl)quinazolin-4-yl)amino)acetamide], the 50% inhibitory concentration (IC50) amounted to 64 nM.

In the case of `CCC(NS(=O)(=O)C(F)(F)F)[C@H]1CC[C@@H](N2CC(NC(=O)CNc3ncnc4ccc(C(F)(F)F)cc34)C2)CC1` (stereo partly drawn) [Example 140, 2-((6-(trifluoromethyl)quinazolin-4-yl)amino)-N-(1-((1R,4s)-4-((S)-1-(trifluoromethylsulfonamido)propyl)cyclohexyl)azetidin-3-yl)acetamide], the IC50 amounted to 3000 nM.

With `O=C(CNc1ncnc2ccc(C(F)(F)F)cc12)NC1CN(C2CCC([C@@H](O)C3CC3)CC2)C1` (single isomer, unassigned; (+)) [(+) 6], the IC50 was found to be 25 nM.

Consider `CCCN(C=O)[C@H]1CC[C@@H](N2CC(NC(=O)CNc3ncnc4ccc(C(F)(F)F)cc34)C2)CC1` [Example 51, N-(1-((1s,4s)-4-(N-propylformamido)cyclohexyl)azetidin-3-yl)-2-((6-(trifluoromethyl)quinazolin-4-yl)amino)acetamide], for which the IC50 came to 37 nM.

For `O=C(CNc1ncnc2ccc(C(F)(F)F)cc12)NC1CN([C@H]2CC[C@@H](N3CCOCC3)CC2)C1` [Example 132, N-(1-((1s,4s)-4-morpholinocyclohexyl)azetidin-3-yl)-2-((6-(trifluoromethyl)quinazolin-4-yl)amino)acetamide], the IC50 amounted to 190 nM.

In the case of `CCC(OC)[C@H]1CC[C@@H](N2CC(NC(=O)CNc3ncnc4ccc(C(F)(F)F)cc34)C2)CC1` (some centres unmarked) [Example 120, N-(1-((1s,4s)-4-(1-methoxypropyl)cyclohexyl)azetidin-3-yl)-2-((6-(trifluoromethyl)quinazolin-4-yl)amino)acetamide], the IC50 came out at 83 nM.

Consider `O=C(CNc1ccnc2ccc(C(F)(F)F)cc12)NC1CN([C@H]2CC[C@@H](n3ccccc3=O)CC2)C1` [Example 58, N-(1-((1s,4s)-4-(2-oxopyridin-1(2H)-yl)cyclohexyl)azetidin-3-yl)-2-((6-(trifluoromethyl)quinolin-4-yl)amino)acetamide], for which the IC50 was found to be 91 nM.

In the case of `CC(=O)N(C[C@H]1CC[C@@H](N2CC(NC(=O)CNc3ncnc4ccc(C(F)(F)F)cc34)C2)CC1)C(C)C` [Example 115], the IC50 was 340 nM.

For the molecule `COc1ccc(CNC(=O)C2CCC(N3CC(NC(=O)CNc4ncnc5ccc(C(F)(F)F)cc45)C3)CC2)c(OC)c1` (centres unmarked) [Example 129, N-(2,4-dimethoxybenzyl)-4-(3-(2-((6-(trifluoromethyl)quinazolin-4-yl)amino)acetamido)azetidin-1-yl)cyclohexanecarboxamide], the IC50 was found to be 390 nM.

Regarding `O=C(CNc1ncnc2ccc(C(F)(F)F)cc12)NC1CN(C2CCCCC2)C1` [Example 101, N-(1-cyclohexylazetidin-3-yl)-2-((6-(trifluoromethyl)quinazolin-4-yl)amino)acetamide], the IC50 came out at 63 nM.

For `O=C(CNc1ncnc2ccc(C(F)(F)F)cc12)NC1CN([C@H]2CC[C@@H](CNC(=O)C(F)(F)F)CC2)C1` [Example 112], the IC50 amounted to 81 nM.

Turning to `CCCC(O)(CCC)[C@H]1CC[C@@H](N2CC(NC(=O)CNc3ncnc4ccc(C(F)(F)F)cc34)C2)CC1` [Example 32, N-(1-((1s,4s)-4-(4-hydroxyheptan-4-yl)cyclohexyl)azetidin-3-yl)-2-((6-(trifluoromethyl)quinazolin-4-yl)amino)acetamide], the IC50 came out at 690 nM.

Turning to `C=C(C)C(O)[C@H]1CC[C@@H](N2CC(NC(=O)CNc3ncnc4ccc(C(F)(F)F)cc34)C2)CC1` (stereo partly drawn) [Example 96, N-(1-((1R,4s)-4-(1-hydroxy-2-methylallyl)cyclohexyl)azetidin-3-yl)-2-((6-(trifluoromethyl)quinazolin-4-yl)amino)acetamide], the 50% inhibitory concentration (IC50) stood at 75 nM.

Turning to `CCOC(=O)[C@H]1CC[C@@H](N2CC(NC(=O)CNc3ncnc4ccc(C(F)(F)F)cc34)C2)CC1` [Example 106, (1s,4s)-ethyl 4-(3-(2-((6-(trifluoromethyl)quinazolin-4-yl)amino)acetamido)azetidin-1-yl)cyclohexanecarboxylate], the 50% inhibitory concentration (IC50) was 13 nM.

`O=C(CNc1ncnc2ccc(C(F)(F)F)cc12)NC1CN([C@H]2CC[C@@H](C(O)C(F)(F)C(F)(F)C(F)(F)F)CC2)C1` (stereo partly drawn) [Example 35, N-(1-((1R,4s)-4-(2,2,3,3,4,4,4-heptafluoro-1-hydroxybutyl)cyclohexyl)azetidin-3-yl)-2-((6-(trifluoromethyl)quinazolin-4-yl)amino)acetamide]: the IC50 was 270 nM.

As to `CN1C(=O)CCC1[C@H]1CC[C@@H](N2CC(NC(=O)CNc3ncnc4ccc(C(F)(F)F)cc34)C2)CC1` (stereo partly drawn) [Example 39, N-(1-((1S,4s)-4-(1-methyl-5-oxopyrrolidin-2-yl)cyclohexyl)azetidin-3-yl)-2-((6-(trifluoromethyl)quinazolin-4-yl)amino)acetamide], the IC50 was 231 nM.

On to `CNc1cnccc1C1CCC(N2CC(NC(=O)CNc3ncnc4ccc(C(F)(F)F)cc34)C2)CC1` (centres unmarked) [Example 74, N-(1-(4-(3-(methylamino)pyridin-4-yl)cyclohexyl)azetidin-3-yl)-2-((6-(trifluoromethyl)quinazolin-4-yl)amino)acetamide], for which the IC50 came to 130 nM.

As for `CCC(NC(C)=O)[C@H]1CC[C@@H](N2CC(NC(=O)CNc3ncnc4ccc(C(F)(F)F)cc34)C2)CC1` (stereo partly drawn) [Example 138, N-(1-((1R,4s)-4-((S)-1-acetamidopropyl)cyclohexyl)azetidin-3-yl)-2-((6-(trifluoromethyl)quinazolin-4-yl)amino)acetamide], the IC50 amounted to 1900 nM.

For `C=CC(O)[C@H]1CC[C@@H](N2CC(NC(=O)CNc3ncnc4ccc(C(F)(F)F)cc34)C2)CC1` (stereo partly drawn) [Example 92, N-(1-((1S,4s)-4-(1-hydroxyallyl)cyclohexyl)azetidin-3-yl)-2-((6-(trifluoromethyl)quinazolin-4-yl)amino)acetamide], the IC50 came out at 16 nM.

Take `CC(C)[C@H](O)C1CCC(N2CC(NC(=O)CNc3ncnc4ccc(C(F)(F)F)cc34)C2)CC1` (single isomer, unassigned; (-)) [(−) 8]: the IC50 was determined as 10 nM.

On to `O=C(CNc1ncnc2ccc(C(F)(F)F)cc12)NC1CN([C@H]2CC[C@@H](N3CCCCC3=O)CC2)C1` [Example 56, N-(1-((1s,4s)-4-(2-oxopiperidin-1-yl)cyclohexyl)azetidin-3-yl)-2-((6-(trifluoromethyl)quinazolin-4-yl)amino)acetamide], for which the IC50 was 550 nM.

With `O=C(CNc1ncnc2ccc(C(F)(F)F)cc12)NC1CN([C@H]2CC[C@@H](N3CCCO3)CC2)C1` [Example 53, N-(1-((1s,4s)-4-(isoxazolidin-2-yl)cyclohexyl)azetidin-3-yl)-2-((6-(trifluoromethyl)quinazolin-4-yl)amino)acetamide], the IC50 is 350 nM.

For `O=C(CNc1ncnc2ccc(C(F)(F)F)cc12)NC1CN([C@H]2CC[C@@H](C(O)C3CCCC3)CC2)C1` (stereo partly drawn) [Example 94, N-(1-((1S,4s)-4-(cyclopentyl(hydroxy)methyl)cyclohexyl)azetidin-3-yl)-2-((6-(trifluoromethyl)quinazolin-4-yl)amino)acetamide], the IC50 was found to be 24 nM.
